Assay [1] deals with T1, HCV polymerase (NS5B) type 1b (Hepatitis C virus genotype 1b, UniProt P26663).
T1 construct: a region encoding NS5B (J Virol 1991 March, 65(3), 1105-13, 544 amino acids after deletion of 47 amino acids on the C-terminal); 6xHis (C); made in house; host or cells: Escherichia coli
Description: Assay of enzyme (HCV polymerase) inhibitory activity, type 1b enzyme. It is filed as biochemical, HCV BK strain (type 1b). The essentials: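 Polymerase activity was followed as radiolabelled UTP incorporation by E. coli-expressed, His-tagged NS5B of HCV type 1b lacking its last 47 residues. Conditions: 2 μM UTP, 50 μM other NTPs, Mg2+ buffer at pH 7.5, 25 °C for 60 min. Inhibition relative to compound-free reactions gave IC50.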

The target of assay [2] is T2, HCV polymerase (NS5B) type 1a (Hepatitis C virus genotype 1a, UniProt P26664).
T2 construct: made in house; host or cells: Escherichia coli (by the 'similar method' of the 1b enzyme)
Nature of the assay: Assay of enzyme (HCV polymerase) inhibitory activity, type 1a enzyme. It is filed as biochemical, HCV type 1a (cloned from the blood of patients). The essentials: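 IC50 values derive from radioactivity of newly synthesized RNA with versus without test compound. The enzyme was C-terminally truncated type 1a NS5B, 1.5 μg/ml, run 60 min at 25° C with 3H-UTP-labelled nucleotides.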

[3] abbreviates: HCV polymerase inhibitory activity IC50, 1b, type 1b enzyme.
The mark [4] stands for this setting: HCV polymerase inhibitory activity IC50, 1a, type 1a enzyme.
Setting [5] is: HCV polymerase inhibitory activity (IC50), 1b, type 1b enzyme 0.5 μg/ml, 25° C., 60 min.
[6] abbreviates: HCV polymerase inhibitory activity (IC50), 1a, type 1a enzyme 1.5 μg/ml, 25° C., 60 min.

Structures can show the parent of a compound that is named as a salt.

For `CCCc1ccc(CNC(=O)[C@H]2CN(C(C)=O)CCN2S(=O)(=O)c2ccc(OC(F)(F)F)cc2)cn1` [Example 718, (R)-4-acetyl-1-(4-trifluoromethoxy-benzenesulfonyl)-piperazine-2-carboxylic acid (6-propyl-pyridin-3-ylmethyl)-amide], the IC50 (usually the concentration that gives 50% inhibition) in assay [1] (setting [3]) was 100 to 1000 nM; in assay [2] (setting [4]), > 1000 nM.
As for `CNC(=O)c1cncc2ncc(N3CCN(S(=O)(=O)c4ccc(OC(F)(F)F)cc4)[C@@H](C(=O)NCc4ccc(OC(F)(F)F)cc4)C3)nc12` [Example 865, 2-[(R)-4-(4-trifluoromethoxy-benzenesulfonyl)-3-(4-trifluoromethoxy-benzylcarbamoyl)-piperazin-1-yl]-pyrido[3,4-b]pyrazine-8-carboxylic acid methylamide], the IC50 in assay [1] (setting [3]) and in assay [2] (setting [4]) was < 100 nM each time.
With `CCC(F)(F)c1ccc(CNC(=O)[C@H]2CN(c3nc4nc(Cl)ncc4s3)CCN2S(=O)(=O)c2ccc(C(F)(F)F)cc2)cc1` [Example 902, (R)-4-(5-chloro-thiazolo[4,5-d]pyrimidin-2-yl)-1-(4-trifluoromethyl-benzenesulfonyl)-piperazine-2-carboxylic acid 4-(1,1-difluoro-propyl)-benzylamide], the IC50 in assay [1] (setting [3]) and in assay [2] (setting [4]) was < 100 nM each time.
With `COc1ccc(S(=O)(=O)N2CCN(C(C)=O)CC2C(=O)NCc2ccc(C(F)(F)F)cc2)cc1OC` (stereo not drawn) [Example 136, 4-acetyl-1-(3,4-dimethoxy-benzenesulfonyl)-piperazine-2-carboxylic acid 4-trifluoromethyl-benzylamide], the IC50 in assay [1] (setting [5]) and in assay [2] (setting [6]) was > 1000 nM each time.
On to `CN(C)c1ccc(CNC(=O)C2CN(C(=O)CCN)CCN2S(=O)(=O)c2ccc(I)cc2)cc1` (stereo not drawn) [Example 89, 4-(3-amino-propionyl)-1-(4-iodo-benzenesulfonyl)-piperazine-2-carboxylic acid 4-dimethylamino-benzylamide hydrochloride], for which the IC50 in assay [1] (setting [5]) and in assay [2] (setting [6]) was > 1000 nM each time.
For the molecule `CCCc1ccc(CNC(=O)[C@H]2CN(C(=O)Nc3ccccc3C(=O)O)CCN2S(=O)(=O)c2ccc(OC(F)(F)F)cc2)cc1` [Example 838, 2-{[(R)-3-(4-propyl-benzylcarbamoyl)-4-(4-trifluoromethoxy-benzenesulfonyl)-piperazine-1-carbonyl]-amino}-benzoic acid], the IC50 in assay [1] (setting [3]) and in assay [2] (setting [4]) was > 1000 nM throughout.
In the case of `CC(C)c1ccc(S(=O)(=O)N2CCN(S(C)(=O)=O)CC2C(=O)NCc2ccc(C(F)(F)F)cc2)cc1` (stereo not drawn) [Example 17, 1-(4-isopropyl-benzenesulfonyl)-4-methanesulfonyl-piperazine-2-carboxylic acid 4-trifluoromethyl-benzylamide], the IC50 in assay [1] (setting [5]) and in assay [2] (setting [6]) was > 1000 nM each time.
For the molecule `Cc1nnc(NC(=O)N2CCN(S(=O)(=O)c3ccc(OC(F)(F)F)cc3)[C@@H](C(=O)NCc3ccc(C(F)(F)C(F)(F)F)cc3)C2)s1` [Example 552, (R)-4-(4-trifluoromethoxy-benzenesulfonyl)-piperazine-1,3-dicarboxylic acid 1-[(5-methyl-[1,3,4]thiadiazol-2-yl)-amide] 3-(4-pentafluoroethyl-benzylamide)], the figures for the IC50 in assay [1] (setting [5]) and in assay [2] (setting [6]) were 100 to 1000 nM and > 1000 nM, respectively.
For the molecule `CC(C)c1cc(=O)nc2sc(N3CCN(S(=O)(=O)c4ccc(OC(F)(F)F)cc4)[C@@H](C(=O)NCc4ccc(OC(F)(F)F)cc4)C3)nn12` [Example 1088, (R)-4-(5-isopropyl-7-oxo-7H-[1,3,4]thiadiazolo[3,2-a]pyrimidin-2-yl)-1-(4-trifluoromethoxy-benzenesulfonyl)-piperazine-2-carboxylic acid 4-trifluoromethoxy-benzylamide], the half-inhibitory concentration (IC50) in assay [1] (setting [3]) and in assay [2] (setting [4]) was < 100 nM each time.
Consider `CCOC(=O)c1sc(N2CCN(S(=O)(=O)c3ccc(OC(F)(F)F)cc3)[C@@H](C(=O)NCc3ccc(C(C)(C)C)cc3)C2)nc1N` [Example 582, 4-amino-2-[(R)-3-(4-tert-butyl-benzylcarbamoyl)-4-(4-trifluoromethoxy-benzenesulfonyl)-piperazin-1-yl]-thiazole-5-carboxylic acid ethyl ester], for which the IC50 in assay [1] (setting [5]) and in assay [2] (setting [6]) was 100 to 1000 nM throughout.
In the case of `CCCc1ccc(CNC(=O)[C@H]2CN(c3nc(CC)c(C(=O)O)s3)CCN2S(=O)(=O)c2ccc(OC(F)(F)F)cc2)c(C)c1` [Example 363, 4-ethyl-2-[(R)-3-(2-methyl-4-propyl-benzylcarbamoyl)-4-(4-trifluoromethoxy-benzenesulfonyl)-piperazin-1-yl]-thiazole-5-carboxylic acid], the IC50 in assay [1] (setting [5]) and in assay [2] (setting [6]) was < 100 nM throughout.
With `CCCc1ccc(S(=O)(=O)N2CCN(c3cnc(C(=O)O)cn3)C[C@@H]2C(=O)NCc2ccc(CCC)cc2C)cc1` [Example 441, (R)-3-(2-methyl-4-propyl-benzylcarbamoyl)-4-(4-propyl-benzenesulfonyl)-3,4,5,6-tetrahydro-2H-[1,2′]bipyrazinyl-5′-carboxylic acid], the IC50 in assay [1] (setting [5]) and in assay [2] (setting [6]) was < 100 nM in each case.
For the molecule `NC(=O)CCc1cncc2ncc(N3CCN(S(=O)(=O)c4ccc(OC(F)(F)F)cc4)[C@@H](C(=O)NCc4ccc(OC(F)(F)F)cc4)C3)nc12` [Example 810, (R)-4-[8-(2-carbamoyl-ethyl)-pyrido[3,4-b]pyrazin-2-yl]-1-(4-trifluoromethoxy-benzenesulfonyl)-piperazine-2-carboxylic acid 4-trifluoromethoxy-benzylamide], the IC50 in assay [1] (setting [3]) and in assay [2] (setting [4]) was < 100 nM each time.
For `CCC(F)(F)c1ccc(CNC(=O)[C@H]2CN(c3cnc4cncnc4n3)CCN2S(=O)(=O)c2ccc(-c3ccccc3O)cc2)cc1` [Example 724, (R)-1-(2′-hydroxy-biphenyl-4-sulfonyl)-4-pteridin-7-yl-piperazine-2-carboxylic acid 4-(1,1-difluoro-propyl)-benzylamide], the IC50 in assay [1] (setting [3]) and in assay [2] (setting [4]) was < 100 nM in each case.
As to `CCOC(=O)Cc1nnn(CC(=O)N2CCN(S(=O)(=O)c3ccc(C(F)(F)F)cc3)[C@@H](C(=O)NCc3ccc(C(C)C)cc3)C2)n1` [Example 309, (2-{2-[(R)-3-(4-isopropyl-benzylcarbamoyl)-4-(4-trifluoromethyl-benzenesulfonyl)-piperazin-1-yl]-2-oxo-ethyl}-2H-tetrazol-5-yl)-acetic acid ethyl ester], the IC50 in assay [1] (setting [5]) and in assay [2] (setting [6]) was < 100 nM each time.
For `CCC(F)(F)c1ccc(CNC(=O)[C@H]2CN(C(=O)Nc3nnc(C(C)=O)s3)CCN2S(=O)(=O)c2ccc(OC(F)(F)F)cc2)cc1` [Example 483, (R)-4-(4-trifluoromethoxy-benzenesulfonyl)-piperazine-1,3-dicarboxylic acid 1-[(5-acetyl-[1,3,4]thiadiazol-2-yl)-amide] 3-[4-(1,1-difluoro-propyl)-benzylamide]], the IC50 in assay [1] (setting [5]) and in assay [2] (setting [6]) was > 1000 nM throughout.
In the case of `O=C(NCc1ccc(OC(F)F)c(F)c1)[C@H]1CN(c2nc3nc(C4CC4)[nH]c(=O)c3s2)CCN1S(=O)(=O)c1ccc(OC(F)(F)F)cc1` [Example 1113, (R)-4-(5-cyclopropyl-7-oxo-6,7-dihydro-thiazolo[4,5-d]pyrimidin-2-yl)-1-(4-trifluoromethoxy-benzenesulfonyl)-piperazine-2-carboxylic acid 4-difluoromethoxy-3-fluoro-benzylamide], the IC50 in assay [1] (setting [3]) and in assay [2] (setting [4]) was < 100 nM each time.
As to `O=C(NCc1ccc(OCF)cc1)[C@H]1CN(c2nc3nc(Cl)ncc3s2)CCN1S(=O)(=O)c1ccc(OC(F)(F)F)cc1` [Example 966, (R)-4-(5-chloro-thiazolo[4,5-d]pyrimidin-2-yl)-1-(4-trifluoromethoxy-benzenesulfonyl)-piperazine-2-carboxylic acid 4-fluoromethoxy-benzylamide], the IC50 in assay [1] (setting [3]) and in assay [2] (setting [4]) was < 100 nM in each case.
In the case of `O=C(NCc1ccc(OC(F)F)cc1)[C@H]1CN(c2nn3c(C(F)(F)F)cc(=O)nc3s2)CCN1S(=O)(=O)c1ccc(OC(F)(F)F)cc1` [Example 1066, (R)-4-(7-oxo-5-trifluoromethyl-7H-[1,3,4]thiadiazolo[3,2-a]pyrimidin-2-yl)-1-(4-trifluoromethoxy-benzenesulfonyl)-piperazine-2-carboxylic acid 4-difluoromethoxy-benzylamide], the IC50 in assay [1] (setting [3]) and in assay [2] (setting [4]) was < 100 nM each time.
On to `CCC(F)(F)c1ccc(CNC(=O)[C@H]2CN(c3cnc4ccccc4n3)CCN2S(=O)(=O)c2ccc(OC(F)(F)F)cc2)cc1` [Example 632, (R)-4-quinoxalin-2-yl-1-(4-trifluoromethoxy-benzenesulfonyl)-piperazine-2-carboxylic acid 4-(1,1-difluoro-propyl)-benzylamide], for which the IC50 in assay [1] (setting [5]) and in assay [2] (setting [6]) was < 100 nM throughout.
On to `CCCc1ccc(CNC(=O)[C@H]2CN(c3nc(C(F)(F)F)c(C(=O)O)s3)CCN2S(=O)(=O)c2ccc(OC(F)(F)F)cc2)cc1` [Example 453, 2-[(R)-3-(4-propyl-benzylcarbamoyl)-4-(4-trifluoromethoxy-benzenesulfonyl)-piperazin-1-yl]-4-trifluoromethyl-thiazole-5-carboxylic acid], for which the IC50 in assay [1] (setting [5]) and in assay [2] (setting [6]) was < 100 nM in each case.

The values above are taken from patent US8017612B2, “Piperazine compound and use thereof as a HCV polymerase inhibitor” (priority 2006, dated 2011).
